From the kinase profiling compilation of Christmann-Franck et al. (2016)

What was measured:
Experiment in all cases: radiometric filter-binding kinase assay
[1] = molecular target: AURKB (human) (UniProt Q96GD4)
[2] = molecular target: BRSK1 (human) (UniProt Q8TDC3)
[3] = molecular target: BTK (human) (UniProt Q06187)
[4] = molecular target: CAMKK2 (human) (UniProt Q96RR4)
[5] = molecular target: CSK (human) (UniProt P41240)
[6] = molecular target: CSNK1D (human) (UniProt P48730)
[7] = molecular target: CaMK1 (human) (UniProt Q14012)
[8] = molecular target: DYRK1A (human) (UniProt Q13627)
[9] = molecular target: DYRK2 (human) (UniProt Q92630)
[10] = molecular target: EPHA4 (human) (UniProt P54764)
[11] = molecular target: EPHB2 (human) (UniProt P29323)
[12] = molecular target: EPHB3 (human) (UniProt P54753)
[13] = molecular target: HIPK2 (human) (UniProt Q9H2X6)
HIPK2 (human), sequence (Q9H2X6 whole entry, looked up): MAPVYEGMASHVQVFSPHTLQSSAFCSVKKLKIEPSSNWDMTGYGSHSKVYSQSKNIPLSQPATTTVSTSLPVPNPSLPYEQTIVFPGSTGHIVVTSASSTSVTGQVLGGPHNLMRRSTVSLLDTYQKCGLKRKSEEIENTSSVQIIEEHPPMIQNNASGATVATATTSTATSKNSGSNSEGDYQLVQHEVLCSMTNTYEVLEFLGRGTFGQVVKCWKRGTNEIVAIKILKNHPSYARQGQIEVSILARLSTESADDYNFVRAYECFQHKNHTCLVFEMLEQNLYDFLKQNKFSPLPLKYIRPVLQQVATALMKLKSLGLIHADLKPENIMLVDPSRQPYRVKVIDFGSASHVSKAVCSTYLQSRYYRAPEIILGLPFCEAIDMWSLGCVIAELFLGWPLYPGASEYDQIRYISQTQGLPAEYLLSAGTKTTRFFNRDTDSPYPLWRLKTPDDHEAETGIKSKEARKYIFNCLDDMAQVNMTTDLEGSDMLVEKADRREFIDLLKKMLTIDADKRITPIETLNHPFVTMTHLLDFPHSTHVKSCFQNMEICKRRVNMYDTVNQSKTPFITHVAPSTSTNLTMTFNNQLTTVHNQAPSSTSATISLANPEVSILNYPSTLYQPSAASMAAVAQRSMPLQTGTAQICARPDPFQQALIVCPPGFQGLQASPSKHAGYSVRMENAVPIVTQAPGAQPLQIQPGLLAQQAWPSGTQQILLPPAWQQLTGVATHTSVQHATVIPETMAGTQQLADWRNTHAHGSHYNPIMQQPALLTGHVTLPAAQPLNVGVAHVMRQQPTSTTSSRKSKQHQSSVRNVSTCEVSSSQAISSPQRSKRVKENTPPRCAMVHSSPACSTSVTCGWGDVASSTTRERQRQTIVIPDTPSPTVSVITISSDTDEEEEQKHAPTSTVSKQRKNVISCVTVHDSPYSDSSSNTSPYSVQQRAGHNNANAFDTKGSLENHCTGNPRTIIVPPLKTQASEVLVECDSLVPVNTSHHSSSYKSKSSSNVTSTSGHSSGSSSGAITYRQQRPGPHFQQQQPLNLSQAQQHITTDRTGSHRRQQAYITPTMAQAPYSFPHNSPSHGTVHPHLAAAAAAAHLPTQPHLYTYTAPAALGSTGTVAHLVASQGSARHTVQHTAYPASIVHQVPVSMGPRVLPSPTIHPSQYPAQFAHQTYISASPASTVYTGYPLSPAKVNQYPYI

[14] = molecular target: IGF1R (human) (UniProt P08069)
IGF1R (human), sequence (P08069 whole entry, looked up): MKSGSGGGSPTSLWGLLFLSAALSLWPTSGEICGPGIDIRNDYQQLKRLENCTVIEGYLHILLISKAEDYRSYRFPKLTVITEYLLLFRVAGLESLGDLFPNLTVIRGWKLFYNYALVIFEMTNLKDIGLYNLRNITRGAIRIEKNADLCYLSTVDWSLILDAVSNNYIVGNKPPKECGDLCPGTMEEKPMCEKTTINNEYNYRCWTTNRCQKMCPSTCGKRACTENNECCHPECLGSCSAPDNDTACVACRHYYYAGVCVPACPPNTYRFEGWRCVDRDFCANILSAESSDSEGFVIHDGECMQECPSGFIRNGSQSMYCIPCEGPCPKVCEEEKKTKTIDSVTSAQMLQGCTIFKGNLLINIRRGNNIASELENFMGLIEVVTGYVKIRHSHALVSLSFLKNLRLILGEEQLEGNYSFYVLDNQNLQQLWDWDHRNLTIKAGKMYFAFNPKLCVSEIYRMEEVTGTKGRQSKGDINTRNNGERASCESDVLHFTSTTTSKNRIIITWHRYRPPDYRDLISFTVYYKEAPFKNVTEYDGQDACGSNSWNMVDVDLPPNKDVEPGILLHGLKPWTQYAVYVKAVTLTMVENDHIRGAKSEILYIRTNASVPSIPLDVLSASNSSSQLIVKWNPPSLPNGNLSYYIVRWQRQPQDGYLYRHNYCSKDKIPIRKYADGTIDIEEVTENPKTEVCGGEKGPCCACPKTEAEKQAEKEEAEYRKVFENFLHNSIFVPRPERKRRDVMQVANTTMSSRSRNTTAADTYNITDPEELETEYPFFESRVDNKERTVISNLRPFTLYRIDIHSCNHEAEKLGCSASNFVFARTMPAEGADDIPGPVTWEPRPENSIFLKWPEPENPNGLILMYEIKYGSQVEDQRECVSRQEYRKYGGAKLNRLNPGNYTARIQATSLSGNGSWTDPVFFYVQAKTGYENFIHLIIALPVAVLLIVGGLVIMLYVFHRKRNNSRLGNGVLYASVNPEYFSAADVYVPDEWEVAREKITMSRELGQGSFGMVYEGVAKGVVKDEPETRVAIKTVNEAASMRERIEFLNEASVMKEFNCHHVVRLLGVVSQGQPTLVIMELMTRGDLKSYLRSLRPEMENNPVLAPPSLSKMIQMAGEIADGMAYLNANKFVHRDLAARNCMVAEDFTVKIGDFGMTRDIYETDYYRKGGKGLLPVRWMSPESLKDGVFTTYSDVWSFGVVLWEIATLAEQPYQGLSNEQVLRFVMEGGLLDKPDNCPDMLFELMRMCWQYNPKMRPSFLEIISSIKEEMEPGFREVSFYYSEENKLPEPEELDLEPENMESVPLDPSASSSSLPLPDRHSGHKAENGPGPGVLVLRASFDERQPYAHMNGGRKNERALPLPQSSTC

[15] = molecular target: IKBKB (human) (UniProt O14920)
[16] = molecular target: IKBKE (human) (UniProt Q14164)
[17] = molecular target: MAP2K2 (human) (UniProt P36507)
[18] = molecular target: MAP3K11 (human) (UniProt Q16584)
[19] = molecular target: MAP3K7 TAB1 (human) (UniProt Q15750+O43318)
[20] = molecular target: MAPK12 (human) (UniProt P53778)
[21] = molecular target: MAPK14 (human) (UniProt Q16539)
MAPK14 (human), sequence (Q16539 whole entry, looked up): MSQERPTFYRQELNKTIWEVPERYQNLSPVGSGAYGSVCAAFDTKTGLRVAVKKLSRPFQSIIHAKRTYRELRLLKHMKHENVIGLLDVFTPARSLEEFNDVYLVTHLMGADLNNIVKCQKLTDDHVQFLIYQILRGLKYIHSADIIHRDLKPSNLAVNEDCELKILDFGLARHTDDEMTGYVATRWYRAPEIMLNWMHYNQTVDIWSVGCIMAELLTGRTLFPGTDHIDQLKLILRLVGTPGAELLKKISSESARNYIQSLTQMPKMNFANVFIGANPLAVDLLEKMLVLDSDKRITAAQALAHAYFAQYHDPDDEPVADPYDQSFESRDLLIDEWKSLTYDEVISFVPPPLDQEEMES

[22] = molecular target: MAPK15 (human) (UniProt Q8TD08)
[23] = molecular target: MAPK8 (human) (UniProt P45983)
[24] = molecular target: MAPK9 (human) (UniProt P45984)
[25] = molecular target: MAPKAPK2 (human) (UniProt P49137)
[26] = molecular target: MAPKAPK5 (human) (UniProt Q8IW41)
[27] = molecular target: MELK (human) (UniProt Q14680)
MELK (human), sequence (Q14680 whole entry, looked up): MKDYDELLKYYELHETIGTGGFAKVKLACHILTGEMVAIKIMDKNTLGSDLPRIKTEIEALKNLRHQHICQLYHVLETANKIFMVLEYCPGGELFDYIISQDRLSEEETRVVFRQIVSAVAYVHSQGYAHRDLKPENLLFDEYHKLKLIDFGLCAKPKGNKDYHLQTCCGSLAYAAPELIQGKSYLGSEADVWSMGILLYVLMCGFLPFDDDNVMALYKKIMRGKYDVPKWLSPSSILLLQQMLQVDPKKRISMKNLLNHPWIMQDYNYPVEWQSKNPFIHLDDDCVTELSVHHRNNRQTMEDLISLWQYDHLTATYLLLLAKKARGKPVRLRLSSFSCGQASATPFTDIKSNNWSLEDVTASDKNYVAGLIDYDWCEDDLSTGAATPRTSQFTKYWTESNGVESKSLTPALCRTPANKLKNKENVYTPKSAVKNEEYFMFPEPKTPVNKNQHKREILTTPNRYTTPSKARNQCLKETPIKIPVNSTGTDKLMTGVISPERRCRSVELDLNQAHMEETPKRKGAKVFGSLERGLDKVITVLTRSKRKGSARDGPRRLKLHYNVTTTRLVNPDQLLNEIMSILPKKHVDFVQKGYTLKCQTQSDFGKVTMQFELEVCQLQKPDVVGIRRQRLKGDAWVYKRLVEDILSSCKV

[28] = molecular target: MINK1 (human) (UniProt Q8N4C8)
[29] = molecular target: MKNK2 (human) (UniProt Q9HBH9)
[30] = molecular target: PAK4 (human) (UniProt O96013)
PAK4 (human), sequence (O96013 whole entry, looked up): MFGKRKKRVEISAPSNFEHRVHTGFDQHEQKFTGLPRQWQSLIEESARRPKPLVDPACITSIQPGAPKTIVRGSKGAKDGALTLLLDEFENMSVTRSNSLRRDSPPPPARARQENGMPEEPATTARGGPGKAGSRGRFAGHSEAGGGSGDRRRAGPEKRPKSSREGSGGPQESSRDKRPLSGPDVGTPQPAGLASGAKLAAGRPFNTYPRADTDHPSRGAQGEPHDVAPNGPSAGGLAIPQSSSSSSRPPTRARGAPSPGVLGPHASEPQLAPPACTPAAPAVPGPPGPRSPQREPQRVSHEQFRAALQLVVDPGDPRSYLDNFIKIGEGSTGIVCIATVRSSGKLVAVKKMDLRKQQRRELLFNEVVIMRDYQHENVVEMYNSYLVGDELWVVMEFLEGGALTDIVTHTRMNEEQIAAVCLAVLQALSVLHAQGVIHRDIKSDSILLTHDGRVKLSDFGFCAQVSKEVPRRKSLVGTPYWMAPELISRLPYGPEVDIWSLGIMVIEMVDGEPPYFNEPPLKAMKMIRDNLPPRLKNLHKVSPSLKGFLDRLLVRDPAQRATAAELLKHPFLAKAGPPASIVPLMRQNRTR

[31] = molecular target: PAK7 (human) (UniProt Q9P286)
[32] = molecular target: PIM1 (human) (UniProt P11309)
[33] = molecular target: PRKACA (human) (UniProt P17612)
[34] = molecular target: RIPK2 (human) (UniProt O43353)
[35] = molecular target: YES1 (human) (UniProt P07947)
YES1 (human), sequence (P07947 whole entry, looked up): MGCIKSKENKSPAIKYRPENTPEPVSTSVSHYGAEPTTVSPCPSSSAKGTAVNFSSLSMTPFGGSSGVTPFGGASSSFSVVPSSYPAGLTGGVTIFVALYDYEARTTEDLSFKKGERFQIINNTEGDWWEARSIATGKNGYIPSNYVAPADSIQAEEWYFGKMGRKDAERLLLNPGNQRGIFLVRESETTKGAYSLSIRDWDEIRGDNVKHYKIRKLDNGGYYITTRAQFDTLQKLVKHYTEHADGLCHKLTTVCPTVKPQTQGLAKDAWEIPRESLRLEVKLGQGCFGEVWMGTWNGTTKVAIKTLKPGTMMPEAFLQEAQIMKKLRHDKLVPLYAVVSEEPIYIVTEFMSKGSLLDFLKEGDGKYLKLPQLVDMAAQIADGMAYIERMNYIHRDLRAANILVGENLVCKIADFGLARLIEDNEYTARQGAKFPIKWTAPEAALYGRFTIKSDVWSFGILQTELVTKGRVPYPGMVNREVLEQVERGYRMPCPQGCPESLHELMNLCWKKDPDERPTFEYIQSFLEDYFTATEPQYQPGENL

AURKB (human), sequence (Q96GD4 whole entry, looked up): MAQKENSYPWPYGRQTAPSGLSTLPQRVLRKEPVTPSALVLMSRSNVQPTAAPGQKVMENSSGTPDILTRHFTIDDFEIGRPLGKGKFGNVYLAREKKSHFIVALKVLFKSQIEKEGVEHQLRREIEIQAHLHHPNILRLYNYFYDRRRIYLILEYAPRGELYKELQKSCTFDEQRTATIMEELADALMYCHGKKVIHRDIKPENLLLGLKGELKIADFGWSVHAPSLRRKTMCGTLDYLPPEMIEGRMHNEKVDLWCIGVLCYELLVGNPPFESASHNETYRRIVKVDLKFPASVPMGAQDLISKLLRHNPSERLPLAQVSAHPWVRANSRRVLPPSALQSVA

`CNc1nc(-c2ccc3c(N)n[nH]c3c2)cc(N2C[C@@H](C(=O)NC3CCCCC3)CC[C@H]2C)n1` gave a residual activity ([1]; compound 0.01 µM) of 105%, a residual activity ([1]; compound 0.1 µM) of 106% and a residual activity ([1]; compound 1.0 µM) of 72%. The residual activity ([1]; compound 10.0 µM) was 29%, the residual activity ([2]; compound 0.01 µM) was 110% and the residual activity ([2]; compound 0.1 µM) was 95%. It also gave a residual activity ([2]; compound 1.0 µM) of 53%, a residual activity ([2]; compound 10.0 µM) of 11% and a residual activity ([3]; compound 0.01 µM) of 126%. The residual activity ([3]; compound 0.1 µM) was 121%, the residual activity ([3]; compound 1.0 µM) was 97% and the residual activity ([3]; compound 10.0 µM) was 90%. The residual activity ([4]; compound 0.01 µM) was 112%, the residual activity ([4]; compound 0.1 µM) was 123% and the residual activity ([4]; compound 1.0 µM) was 99%. The residual activity ([4]; compound 10.0 µM) was 91%, the residual activity ([5]; compound 0.01 µM) was 103% and the residual activity ([5]; compound 0.1 µM) was 104%. It also gave a residual activity ([5]; compound 1.0 µM) of 100%, a residual activity ([5]; compound 10.0 µM) of 93% and a residual activity ([6]; compound 0.01 µM) of 100%. It also gave a residual activity ([6]; compound 0.1 µM) of 108%, a residual activity ([6]; compound 1.0 µM) of 96% and a residual activity ([6]; compound 10.0 µM) of 88%. For the same compound, the residual activity ([7]; compound 0.01 µM) was 108%, the residual activity ([7]; compound 0.1 µM) was 112% and the residual activity ([7]; compound 1.0 µM) was 89%. The residual activity ([7]; compound 10.0 µM) was 95%, the residual activity ([8]; compound 0.01 µM) was 102% and the residual activity ([8]; compound 0.1 µM) was 107%. The residual activity ([8]; compound 1.0 µM) was 92%, the residual activity ([8]; compound 10.0 µM) was 82% and the residual activity ([9]; compound 0.01 µM) was 100%. The residual activity ([9]; compound 0.1 µM) was 108%, the residual activity ([9]; compound 1.0 µM) was 97% and the residual activity ([10]; compound 1.0 µM) was 86%. It also gave a residual activity ([10]; compound 10.0 µM) of 98%, a residual activity ([11]; compound 1.0 µM) of 119% and a residual activity ([11]; compound 10.0 µM) of 111%. It also gave a residual activity ([12]; compound 0.01 µM) of 106%, a residual activity ([12]; compound 0.1 µM) of 107% and a residual activity ([12]; compound 1.0 µM) of 120%. For the same compound, the residual activity ([12]; compound 10.0 µM) was 103%, the residual activity ([13]; compound 0.01 µM) was 119% and the residual activity ([13]; compound 0.1 µM) was 124%. The residual activity ([13]; compound 1.0 µM) was 95%, the residual activity ([13]; compound 10.0 µM) was 113% and the residual activity ([14]; compound 0.1 µM) was 115%. It also gave a residual activity ([14]; compound 1.0 µM) of 98%, a residual activity ([14]; compound 10.0 µM) of 100% and a residual activity ([15]; compound 0.01 µM) of 105%. For the same compound, the residual activity ([15]; compound 0.1 µM) was 112%, the residual activity ([15]; compound 1.0 µM) was 118% and the residual activity ([15]; compound 10.0 µM) was 103%. It also gave a residual activity ([16]; compound 0.01 µM) of 114%, a residual activity ([16]; compound 0.1 µM) of 97% and a residual activity ([16]; compound 1.0 µM) of 91%. It also gave a residual activity ([16]; compound 10.0 µM) of 45%, a residual activity ([17]; compound 1.0 µM) of 114% and a residual activity ([17]; compound 10.0 µM) of 94%. For the same compound, the residual activity ([18]; compound 0.01 µM) was 100%, the residual activity ([18]; compound 0.1 µM) was 110% and the residual activity ([18]; compound 1.0 µM) was 80%. It also gave a residual activity ([18]; compound 10.0 µM) of 44%, a residual activity ([19]; compound 1.0 µM) of 99% and a residual activity ([19]; compound 10.0 µM) of 79%. It also gave a residual activity ([20]; compound 0.01 µM) of 109%, a residual activity ([20]; compound 0.1 µM) of 110% and a residual activity ([20]; compound 1.0 µM) of 99%. For the same compound, the residual activity ([20]; compound 10.0 µM) was 110%, the residual activity ([21]; compound 0.01 µM) was 105% and the residual activity ([21]; compound 0.1 µM) was 109%. For the same compound, the residual activity ([21]; compound 1.0 µM) was 100%, the residual activity ([21]; compound 10.0 µM) was 99% and the residual activity ([22]; compound 0.01 µM) was 106%. It also gave a residual activity ([22]; compound 0.1 µM) of 117%, a residual activity ([22]; compound 1.0 µM) of 99% and a residual activity ([22]; compound 10.0 µM) of 83%. It also gave a residual activity ([23]; compound 0.01 µM) of 92%, a residual activity ([23]; compound 0.1 µM) of 108% and a residual activity ([23]; compound 1.0 µM) of 94%. It also gave a residual activity ([23]; compound 10.0 µM) of 108%, a residual activity ([24]; compound 0.01 µM) of 117% and a residual activity ([24]; compound 0.1 µM) of 126%. It also gave a residual activity ([24]; compound 1.0 µM) of 104%, a residual activity ([24]; compound 10.0 µM) of 114% and a residual activity ([25]; compound 0.01 µM) of 104%. It also gave a residual activity ([25]; compound 0.1 µM) of 111%, a residual activity ([25]; compound 1.0 µM) of 86% and a residual activity ([25]; compound 10.0 µM) of 84%. It also gave a residual activity ([26]; compound 0.01 µM) of 81%, a residual activity ([26]; compound 0.1 µM) of 92% and a residual activity ([26]; compound 1.0 µM) of 110%. It also gave a residual activity ([26]; compound 10.0 µM) of 95%, a residual activity ([27]; compound 0.01 µM) of 115% and a residual activity ([27]; compound 0.1 µM) of 77%. It also gave a residual activity ([27]; compound 1.0 µM) of 31%, a residual activity ([27]; compound 10.0 µM) of 22% and a residual activity ([28]; compound 0.01 µM) of 121%. For the same compound, the residual activity ([28]; compound 0.1 µM) was 110%, the residual activity ([28]; compound 1.0 µM) was 89% and the residual activity ([28]; compound 10.0 µM) was 74%. It also gave a residual activity ([29]; compound 0.01 µM) of 91%, a residual activity ([29]; compound 1.0 µM) of 80% and a residual activity ([29]; compound 10.0 µM) of 94%. It also gave a residual activity ([30]; compound 0.01 µM) of 108%, a residual activity ([30]; compound 0.1 µM) of 117% and a residual activity ([30]; compound 1.0 µM) of 100%. The residual activity ([31]; compound 0.01 µM) was 97%, the residual activity ([31]; compound 0.1 µM) was 101% and the residual activity ([31]; compound 1.0 µM) was 97%. The residual activity ([31]; compound 10.0 µM) was 99%, the residual activity ([32]; compound 0.01 µM) was 99% and the residual activity ([32]; compound 0.1 µM) was 100%. For the same compound, the residual activity ([32]; compound 1.0 µM) was 112%, the residual activity ([32]; compound 10.0 µM) was 93% and the residual activity ([33]; compound 0.01 µM) was 103%. For the same compound, the residual activity ([33]; compound 0.1 µM) was 111%, the residual activity ([33]; compound 1.0 µM) was 102% and the residual activity ([33]; compound 10.0 µM) was 84%. The residual activity ([34]; compound 0.01 µM) was 110%, the residual activity ([34]; compound 0.1 µM) was 114% and the residual activity ([34]; compound 1.0 µM) was 116%. It also gave a residual activity ([34]; compound 10.0 µM) of 100%, a residual activity ([35]; compound 0.01 µM) of 122% and a residual activity ([35]; compound 0.1 µM) of 119%. It also gave a residual activity ([35]; compound 1.0 µM) of 106% and a residual activity ([35]; compound 10.0 µM) of 98%.
